# Assay results taken from patent US20230338397A1, “COMPOSITION COMPRISING CANNABINOIDS, AND/OR TERPENS, AND METHODS OF USING SAME” (priority 2020, published 2023).
# Entries after “also recorded” stand apart in the source; their conditions may differ.
# Tests used:
# [1] = system: human Jurkat T cell line; experiment: T cell death in Jurkat cells (PI, flow cytometry); settings: 2 h, FIG. 11; for T cell death compared to vehicle: CBD 1-20 μM, CBG 5-20 μM
# [2] = system: human NP tissue; experiment: NP organ culture: tissue weight reduction ex-vivo; settings: for NP tissue weight reduction: 150 μM
# [3] = system: enzymatically-dissociated human NP; experiment: NP organ culture: cell death by PI and flow cytometry after enzymatic digestion; settings: for cell death of incubated nasal polyp cells: 72 h, FIG. 10
# [4] = system: human nasal polyp (NP) whole tissues; experiment: NP organ culture: detachment of cells/tissue pieces from nasal polyp (micrographs)
# [5] = system: GM-CSF; experiment: GM-CSF level in SEB-stimulated dispersed nasal polyp cells; type: cell-based, human; settings: CBD 2.5 μM, 5 μM, 10 μM, 30 min before SEB, FIG. 8
# [6] = system: dispersed nasal polyp cells; experiment: Cell death of dispersed NP cells (PI, flow cytometry), 2 h; type: cell-based, human; settings: 10 μM, 2 h incubation, FIG. 12
# Description: DNPCs are prepared from nasal polyps by means of enzymatic digestion. Nasal Polyps are incubated for 2 hours at 37° C. in RPMI 1640 (1 g of tissue per 4 mL) containing 2.0 mg/mL protease, 1.5 mg/mL collagenase, 0.75 mg/mL hyaluronidase, and 0.05 mg/mL DNase. The cell suspension is then filtered through a […] cell strainer to remove any undigested tissue and washed 2 times with washing medium (RPMI 1640 supplemented with 2% FCS, 2 mmol/L glutamine, 100 U/mL penicillin, and […] streptomycin). The cell pellet is resuspended in erythrocyte lysis buffer and washed with washing medium. After washing, DNPCs are suspended in culture medium (RPMI 1640 supplemented with 10% Foetal Calf Serum (FCS), 2 mmol/L glutamine, 100 U/mL penicillin, and […] streptomycin).
# The effect of the treatment is evaluated by cell death parameters, using […] (PI) and flow cytometry (FACS) analysis, and enzymatic-linked immunoassay (ELISA).
compound,measurement,setting,value
"C=C(C)[C@@H]1CCC(C)=C[C@H]1c1c(O)cc(CCCCC)cc1O [CBD, cannabidiol]",T cell death compared to vehicle,[1],significant cell death compared to control
same,NP tissue weight reduction,"[2]; 3 h incubation, FIG. 4",significant tissue weight reduction; also recorded: significant nasal polyp weight reduction
same,NP tissue weight reduction,"[2]; CBD 15 μM, 1.5 mM, 24 h incubation, FIG. 5",significant human NP tissue weight reduction; also recorded: significant dose-dependent nasal polyp weight reduction
same,percent of dead cells,"[3]; CBD 15 μM, 150 μM, 1.5 mM, 24 h, PI-positive, FIG. 7",significantly increased the percent of dead cells
same,cell death of incubated nasal polyp cells,[3]; CBD alone 150 μM,substantial cell death
same,detachment of cells/tissue pieces from the main NP,"[4]; CBD 150 μM, 3 h incubation, FIG. 1",starting to detach from the main NP whole tissue; also recorded: starting to detach and disaggregate from the main polyp
same,cells/tissue pieces breaking off the main polyp,"[4]; CBD 150 μM, 72 h incubation, FIG. 3",cells/tissue pieces are breaking off the main polyp into the medium
same,detachment of cells/tissues from the main NP,"[4]; CBD 600 μM, 24 h incubation, FIG. 2",significant detachment of cells/tissues; also recorded: significant detachment of nasal polyp cells/pieces
same,GM-CSF level,[5],significantly decrease; also recorded: significantly reduces or inhibits
same,cell death % of dispersed NP cells,[6],significant increase in cell death %; also recorded: significant increase in cell death
"C=C(C)[C@@H]1CCC(C)=C[C@H]1c1c(O)cc(CCC)cc1O [CBDV, cannabidivarin]",T cell death,[1]; CBDV 20 μM,induce cell death
"CCCCCc1cc(O)c(C/C=C(\C)CCC=C(C)C)c(O)c1 [CBG, cannabigerol]",T cell death compared to vehicle,[1],significant cell death compared to control
same,size of nasal polyps,"[2]; CBG 150 μM, 24 h, FIG. 13A",size of nasal polyps is reduced
same,cell death of NP cells,"[3]; CBG 150 μM, FIG. 13C-13D",substantial cell death
same,cell death % of dispersed NP cells,[6],significant increase in cell death %; also recorded: significant increase in cell death
"CCCCCc1cc(O)c2c(c1)OC(C)(C)[C@@H]1CCC(C)=C[C@@H]21 [THC, tetrahydrocannabinol]",viability of nasal polyp cells (cell death),"[3]; THC 10 μM and 100 μM, 24 h, FIG. 9","comparable effect as CBD at 15 μM and 150 μM, respectively"
same,% cell death,"[3]; THC 100 μM, FIG. 9",comparable effect to CBD at a concentration of 150 μM
same,cell death of incubated nasal polyp cells,[3]; THC alone 10 μM,negligible
